For assay [1], the target named is GABA-A receptor; anion channel. Kind of assay: In vitro inhibition of [35S]t-butyl-bicyclophosphorothionate (TBPS) binding to Gamma-aminobutyric acid A (GABA-A) receptor. In kind it is protein-complex assay, Rattus norvegicus.
Assay [2] has as its system Rattus norvegicus. Kind of assay: Percent change in punished responding phase (FR) after administration of 20 mg/Kg oral dose in rat Geller-Seifter test. Format: functional.
In assay [3] the test system is Rattus norvegicus. As to the kind of experiment: Percent change in variable interval unpunished responding phase (VI) after administration of 20 mg/Kg oral dose in rat Geller-Seifter test. Format: functional.
The species named for assay [4] is Rattus norvegicus. As to the kind of experiment: Number of animals responding to the above phases out of 6 tested, expressed as Nr/N. In kind it is functional.
Assay [5] addresses GABA-A receptor; anion channel. As to the kind of experiment: Inhibition of [3H]flunitrazepam binding to GABA-A receptor. Format: protein-complex assay, Rattus norvegicus.
Assay [6] concerns Rattus norvegicus. Kind of assay: Percent change in variable interval unpunished responding phase (VI) after administration of 40 mg/Kg intraperitoneally in rat Geller-Seifter test. Format: functional.
The species entered for assay [7] is Rattus norvegicus. As to the kind of experiment: Number of animals responding to the above phases out of 8 tested, expressed as Nr/N. Format: functional.
Assay [8] has as its system Rattus norvegicus. Kind of assay: Percent change in punished responding phase (FR) after administration of 40 mg/Kg intraperitoneally in rat Geller-Seifter test. Format: functional.
The test system of assay [9] is Rattus norvegicus. As to the kind of experiment: Percent change in punished responding phase (FR) after administration of 10 mg/Kg oral dose in rat Geller-Seifter test. In kind it is functional.
Assay [10] deals with Rattus norvegicus. Kind of assay: Percent change in variable interval unpunished responding phase (VI) after administration of 10 mg/Kg oral dose in rat Geller-Seifter test. Format: functional.
The subject of assay [11] is Rattus norvegicus. As to the kind of experiment: Percent change in punished responding phase (FR) after administration of 20 mg/kg oral dose in rat Geller-Seifter test. Format: functional.
For assay [12], the system named is Rattus norvegicus. Kind of assay: Percent change in variable interval unpunished responding phase (VI) after administration of 20 mg/kg oral dose in rat Geller-Seifter test. Format: functional.
Assay [13] is filed under the species Rattus norvegicus. As to the kind of experiment: Number of animals responding to the above phases out of 16 tested, expressed as Nr/N. In kind it is functional.
Assay [14] relates to Rattus norvegicus. Kind of assay: Percent change in punished responding phase (FR) after administration of 20 mg/kg oral dose in rat Geller-Seifter test. In kind it is functional.

We go through 14 molecules from ChEMBL document CHEMBL1128067, “Isosteric replacement of the indole nucleus by benzothiophene in a series of pyrido[2,3-b]indoles with potential anxiolytic activity” (Bioorg Med Chem Lett, 1995).

Bounds are passed on as bounds.

Usually IC50 stands for the concentration that gives 50% inhibition. As for `CC1CCc2nc3sc4ccccc4c3c(N)c2C1=O` (stereo unspecified), in [1], the IC50 came to 0.46 µM. The Change with Rattus norvegicus [2] was found to be 30%; in the assay on Rattus norvegicus [3] it was 0%. The Nr/N in the assay filed under Rattus norvegicus [4] is reported as 5.

For the molecule `CC1CCc2nc3c(c(N)c2C1=O)c1ccccc1n3C` (stereo unspecified), the IC50 in [5] is above 100 µM. The Change in the assay with Rattus norvegicus [2] came out at 52%; in the assay on Rattus norvegicus [3], 0%. Also, in the assay listed under Rattus norvegicus [4], the Nr/N worked out at 5.

Take `CC1CCc2nc3sc4c(c3c(N)c2C1=O)CCCCC4` (stereo unspecified): in [1], the IC50 came out at 0.37 µM.

With `COC(=O)c1c(C)nc2sc3c(c2c1N)CCCC3`, the IC50 in [1] was 7.5 µM. The Change came out at 0% with Rattus norvegicus [6] and 42% in the assay with Rattus norvegicus [8]. For the same molecule, the Nr/N in the assay listed under Rattus norvegicus [7] is reported as 8.

For the molecule `COC(=O)c1c(C)nc2c(c(C)c(C)n2C)c1N`, the IC50 in [1] is 12 µM; in [5], above 100 µM.

`CC1CCc2nc3sc4c(c3c(N)c2C1=O)CCC4` (stereo unspecified) gave an IC50 in assay [1] of 1.7 µM. The results for the Change in the assay with Rattus norvegicus [2] and in the assay with Rattus norvegicus [3] were 26% and 0%, respectively. The molecule further had a Nr/N in the assay listed under Rattus norvegicus [4] of 5.

Take `CN1C(=O)CN=C(c2ccccc2)c2cc(Cl)ccc21` [DIAZEPAM]: the Change in the assay with Rattus norvegicus [9] came to 114%; with Rattus norvegicus [10], 10%. Besides, the Nr/N in the assay filed under Rattus norvegicus [7] was 7.

On to `Cn1c2c(c3c(N)c4c(nc31)CCCC4=O)CCCC2`, for which the IC50 in [1] worked out at 6.3 µM.

`CC1CCc2nc3sc4c(c3c(N)c2C1=O)CCCC4` (stereo unspecified) came in with an IC50 in assay [1] of 1.6 µM.

As for `Cn1c2ccccc2c2cc3c(nc21)CCCC3=O`, the results for the IC50 in [1] and in [5] were 10 µM and above 100 µM, respectively. Besides, the Change in the assay with Rattus norvegicus [11] came to 4%; in the assay on Rattus norvegicus [12], 2%. Besides, the Nr/N in the assay listed under Rattus norvegicus [4] was 3.

With `Nc1c2c(nc3sc4c(c13)CCCCC4)CCCC2=O`, the figures for the IC50 in assay [1] and in [5] were 0.29 µM and above 100 µM, respectively.

`CCOC(=O)c1c(C)nc2c(c1N)c1ccccc1n2C` showed an IC50 in assay [5] above 100 µM. For the same molecule, the Change in the assay on Rattus norvegicus [2] is 22%; in the assay on Rattus norvegicus [3], -3%. Also, in the assay filed under Rattus norvegicus [13], the Nr/N was 12.

`Cn1c2ccccc2c2c(N)c3c(nc21)CCCC3` gave an IC50 in [1] above 100 µM.

As for `CC1CCc2nc3c(c(N)c2C1=O)c1c(n3C)CCCC1` (stereo unspecified), the IC50 came out at 2.7 µM in assay [1] and 18 µM in assay [5]. Further, the Change with Rattus norvegicus [14] was 28%; in the assay with Rattus norvegicus [12] it was 1%. Further, the Nr/N in the assay listed under Rattus norvegicus [4] is 5.
